Columns and labels:
[1] = molecular target: T1, GST-PDK1_1-556 (Homo sapiens, UniProt O15530); assay: AlphaScreen GST-PDK1_1-556 / biotin-PIFtide interaction; format: binding
T1 construct: made in house; host or cells: HEK293 cells (transient transfection of pEBG2T); peptide synthesized by Pepscan
T1 sequence (O15530 1-556): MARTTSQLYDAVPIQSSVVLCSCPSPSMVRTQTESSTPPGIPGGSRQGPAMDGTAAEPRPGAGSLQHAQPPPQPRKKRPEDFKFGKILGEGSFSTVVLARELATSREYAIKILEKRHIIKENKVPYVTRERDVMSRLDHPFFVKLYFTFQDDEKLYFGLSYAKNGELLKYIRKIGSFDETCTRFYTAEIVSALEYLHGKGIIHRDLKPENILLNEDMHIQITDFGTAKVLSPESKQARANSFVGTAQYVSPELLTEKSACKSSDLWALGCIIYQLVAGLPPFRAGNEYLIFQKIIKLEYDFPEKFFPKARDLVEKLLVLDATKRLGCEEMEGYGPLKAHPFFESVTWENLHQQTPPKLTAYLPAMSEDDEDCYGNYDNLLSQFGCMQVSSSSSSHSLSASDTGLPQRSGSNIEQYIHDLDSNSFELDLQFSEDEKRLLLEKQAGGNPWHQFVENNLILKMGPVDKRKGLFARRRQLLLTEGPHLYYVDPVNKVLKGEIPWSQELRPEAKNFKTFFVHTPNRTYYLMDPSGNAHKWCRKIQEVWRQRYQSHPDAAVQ
Description: The AlphaScreen® assay was performed following the general guidelines from the manufacturer (Perkin Elmer) ([29]). In short, the assay was performed in a final volume of 25 μl in white 384-well microtiter plates (Greiner) in a standard buffer containing 50 mM Tris-HCl (pH 7.4), 100 mM NaCl, 2 mM DTT, 0.01% (v/v) Tween-20 and 0.1% (w/v) BSA, with the addition of 5 μl of beads (anti-GST coated acceptor beads and streptavidin-coated donor beads; nickel chelate-coated acceptor beads and streptavidin-coated donor beads; or nickel chelate-coated acceptor beads and GSH-coated donor beads, 20 μg/ml final concentrations for each bead type). AlphaScreen assays for His-tagged proteins and GST-fusion proteins were performed using nickel chelate-coated acceptor beads and GSH-coated donor beads; alphascreen assays for His-tagged proteins and biotinylated molecules were performed using nickel chelate-coated acceptor beads and streptavidin-coated donor beads; alphascreen assays for GST-fusion proteins and biotinylated molecules were performed using anti-GST coated acceptor beads and streptavidin-coated donor beads (Perkin Elmer).
The interaction between GST-PDK1_1-556 and biotin-PIFtide was performed as described previously ([29], [32]) in the standard buffer, but the bead concentration was lowered to 15 μg/ml.

[2] = molecular target: T1, GST-PDK1_1-556; assay: AlphaScreen biotin-GS-022 / GST-PDK1_1-556 interaction; format: binding
Text: 163 independent experiments. (F-G) Interaction and displacement of interactions using
164 AlphaScreen technlology. (F) Interaction of biotin-GS-022 with GST-PDK11-556 and GST-
165 PDK11-359. N=2 independent experiments. (G) Effect of HYG8 on the interaction between
166 biotin-GS-022 and GST-PDK11-556. N=2 independent experiments.
167 The Thermo Fisher Scientific “PDK1 Direct” assay produced results quite different from those
168 obtained using our PDK1 kinase assay which uses [γ32P]ATP and T308tide
169 ([…]) as substrates. Phosphorylation of T308tide and of the alternative
170 peptides GS-022 ([…]) and GS-023 ([…]-K(5-FAM)) was
171 compared. GS-023 and GS-022 were phosphorylated efficiently by GST-PDK11-556, with over
172 30 and 10-fold higher turnover than T308tide, respectively (fig. S2A). The increased
174 GS-023 peptide provided a degree of improvement of substrate phosphorylation by PDK11-
175 556. GST-PDK11-359, comprising only the catalytic domain but lacking the linker region and the
176 PH domain, phosphorylated the three substrates similarly, with a slight increased turnover
177 towards GS-023 (fig. S2B). Thus, the phosphorylation of GS-23 and GS-022, but not that of
178 T308tide, depended on the construct used (figs. S2C-E). To assess a possible differential […]
180 that measured the interaction of biotin-GS-022 with GST-PDK11-556 and GST-PDK11-359. […]

Compound: O=C(O[C@H]1[C@@H](OP(=O)(O)O)[C@H](OP(=O)(O)O)[C@@H](OP(=O)(O)O)[C@H](OP(=O)(O)O)[C@H]1OP(=O)(O)O)c1ccccc1 [HYG8, 2-O-benzoyl-IP5]
- EC50 ([1]; approximate, read-out: EC50, increase of GST-PDK1_1-556 binding to PIFtide): ~2.4 nM
- fold increase of binding of GST-PDK1_1-556 to PIFtide ([1]; different experiments): 3-4 fold
- effect on interaction between GS-022 and PDK1_1-556 [2]: potently
